{"source": "EPA's CvTdb concentration-time database", "key": {"Rat [1]": {"tested_on": "Rat", "assay": "concentration in plasma after dosing", "conditions": "40 h; dosed: Pyridine; 100 mg/kg; oral; Male; F344"}, "Mouse [2]": {"tested_on": "Mouse", "assay": "concentration in plasma after dosing", "conditions": "0.25 h; dosed: 2-Hydroxy-4-methoxybenzophenone; 50 mg/kg; iv; Female; B6C3F1"}, "Rat [3]": {"tested_on": "Rat", "assay": "concentration in plasma after dosing", "conditions": "dosed: 2-Hydroxy-4-methoxybenzophenone, 500 mg/kg, oral, Male, F344"}, "Rat [4]": {"tested_on": "Rat", "assay": "concentration in plasma after dosing", "conditions": "12 h; dosed: alpha-Thujone; 50 mg/kg; oral; Female; Harlan Sprague Dawley"}, "Rat [5]": {"tested_on": "Rat", "assay": "concentration in plasma after dosing", "conditions": "0.5 h; dosed: alpha-Thujone; 25 mg/kg; oral; Male; Harlan Sprague Dawley"}, "Rat [6]": {"tested_on": "Rat", "assay": "concentration in plasma after dosing", "conditions": "0.5 h; dosed: alpha-Thujone; 25 mg/kg; oral; Female; Harlan Sprague Dawley"}, "Rat [7]": {"tested_on": "Rat", "assay": "concentration in plasma after dosing", "conditions": "5 min; dosed: alpha-Thujone; 50 mg/kg; oral; Female; Harlan Sprague Dawley"}, "Rat [8]": {"tested_on": "Rat", "assay": "concentration in brain after dosing", "conditions": "3 h; dosed: Perfluorohexane-1-sulphonic acid – potassium salt; 16 mg/kg; oral; Female; Harlan Sprague Dawley"}, "Rat [9]": {"tested_on": "Rat", "assay": "concentration in liver after dosing", "conditions": "6 h; dosed: Perfluorohexane-1-sulphonic acid – potassium salt; 16 mg/kg; oral; Female; Harlan Sprague Dawley"}, "Rat [10]": {"tested_on": "Rat", "assay": "concentration in liver after dosing", "conditions": "528 h; dosed: Perfluorohexane-1-sulphonic acid – potassium salt; 16 mg/kg; oral; Female; F344"}, "Rat [11]": {"tested_on": "Rat", "assay": "concentration in kidney after dosing", "conditions": "24 h; dosed: Perfluorohexane-1-sulphonic acid – potassium salt; 16 mg/kg; oral; Female; Harlan Sprague Dawley"}, "Mouse [12]": {"tested_on": "Mouse", "assay": "concentration in plasma after dosing", "conditions": "dosed: 2,4-Dichlorophenoxyacetic acid, 1.0 mg/kg, iv, Male, B6C3F1"}, "Mouse [13]": {"tested_on": "Mouse", "assay": "concentration in plasma after dosing", "conditions": "dosed: 2,4-Dichlorophenoxyacetic acid, 2.0 mg/kg, oral, Male, B6C3F1"}, "Rat [14]": {"tested_on": "Rat", "assay": "concentration in plasma after dosing", "conditions": "12 h; dosed: Primidone; 80 mg/kg; oral; Female; F344"}, "Rat [15]": {"tested_on": "Rat", "assay": "concentration in plasma after dosing", "conditions": "0.5 h; dosed: Primidone; 130 mg/kg; oral; Female; F344"}, "Rat [16]": {"tested_on": "Rat", "assay": "concentration in plasma after dosing", "conditions": "1.5 h; dosed: Primidone; 80 mg/kg; oral; Male; F344"}}}
{"smiles": "c1ccncc1", "note": "[Pyridine]", "values": [{"measurement": "concentration in plasma", "setting": "Rat [1]", "result": 20000, "unit": "ng/mL"}]}
{"smiles": "O=C(c1ccccc1)c1ccc(O)cc1O", "note": "[2,4-Dihydroxybenzophenone]", "values": [{"measurement": "concentration in plasma", "setting": "Mouse [2]", "result": 1260, "unit": "ng/mL"}, {"measurement": "concentration in plasma", "setting": "Rat [3]; 0.5 h", "result": 236, "unit": "ng/mL"}, {"measurement": "concentration in plasma", "setting": "Rat [3]; 12 h", "result": 151, "unit": "ng/mL"}]}
{"smiles": "CC(C)[C@]12CC(=O)[C@H](C)[C@H]1C2", "note": "[alpha-Thujone]", "values": [{"measurement": "concentration in plasma", "setting": "Rat [4]", "result": 23.1, "unit": "ng/mL"}, {"measurement": "concentration in plasma", "setting": "Rat [5]", "result": 337, "unit": "ng/mL"}, {"measurement": "concentration in plasma", "setting": "Rat [6]", "result": 305, "unit": "ng/mL"}, {"measurement": "concentration in plasma", "setting": "Rat [7]", "result": 112, "unit": "ng/mL"}]}
{"smiles": "O=S(=O)([O-])C(F)(F)C(F)(F)C(F)(F)C(F)(F)C(F)(F)C(F)(F)F.[K+]", "note": "[Perfluorohexane-1-sulphonic acid – potassium salt]", "values": [{"measurement": "concentration in brain", "setting": "Rat [8]", "result": 1560, "unit": "ng/g"}, {"measurement": "concentration in liver", "setting": "Rat [9]", "result": 48400, "unit": "ng/g"}, {"measurement": "concentration in liver", "setting": "Rat [10]", "result": 29800, "unit": "ng/g"}, {"measurement": "concentration in kidney", "setting": "Rat [11]", "result": 22700, "unit": "ng/g"}]}
{"smiles": "O=C(O)COc1ccc(Cl)cc1Cl", "note": "[2,4-Dichlorophenoxyacetic acid]", "values": [{"measurement": "concentration in plasma", "setting": "Mouse [12]; 2.5 min", "result": 8150, "unit": "ng/mL"}, {"measurement": "concentration in plasma", "setting": "Mouse [12]; 10 min", "result": 8340, "unit": "ng/mL"}, {"measurement": "concentration in plasma", "setting": "Mouse [12]; 0.5 h", "result": 6070, "unit": "ng/mL"}, {"measurement": "concentration in plasma", "setting": "Mouse [12]; 3 h", "result": 446, "unit": "ng/mL"}, {"measurement": "concentration in plasma", "setting": "Mouse [13]; 2.5 min", "result": 2790, "unit": "ng/mL"}, {"measurement": "concentration in plasma", "setting": "Mouse [13]; 10 min", "result": 4900, "unit": "ng/mL"}, {"measurement": "concentration in plasma", "setting": "Mouse [13]; 0.25 h", "result": 3740, "unit": "ng/mL"}, {"measurement": "concentration in plasma", "setting": "Mouse [13]; 0.5 h", "result": 8570, "unit": "ng/mL"}, {"measurement": "concentration in plasma", "setting": "Mouse [13]; 2 h", "result": 2400, "unit": "ng/mL"}, {"measurement": "concentration in plasma", "setting": "Mouse [13]; 3 h", "result": 929, "unit": "ng/mL"}]}
{"smiles": "CCC1(c2ccccc2)C(=O)NCNC1=O", "note": "[Primidone]", "values": [{"measurement": "concentration in plasma", "setting": "Rat [14]", "result": 15800, "unit": "ng/mL"}, {"measurement": "concentration in plasma", "setting": "Rat [15]", "result": 24000, "unit": "ng/mL"}, {"measurement": "concentration in plasma", "setting": "Rat [16]", "result": 35000, "unit": "ng/mL"}]}
